Article PMC7611208 (Clinical cancer research : an official journal of the …, 2019)

Target: T1, UCHL1 (Homo sapiens, UniProt P09936)
T1 sequence (P09936 1-220): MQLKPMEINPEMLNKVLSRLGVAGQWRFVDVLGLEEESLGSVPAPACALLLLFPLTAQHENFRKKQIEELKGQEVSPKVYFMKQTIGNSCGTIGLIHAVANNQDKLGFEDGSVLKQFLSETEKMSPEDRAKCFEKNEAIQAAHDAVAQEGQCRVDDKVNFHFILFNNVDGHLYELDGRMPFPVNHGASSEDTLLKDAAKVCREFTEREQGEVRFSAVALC
Test: in vitro DUB IC50 assay
Format: biochemical

Work on `N#CN1CC[C@H](C(=O)Nc2ncc(N3CCOCC3)s2)C1` [6RK73] yielded an IC50 of 230 nM.
